One experiment deals with OVCA429 CDX2. The experiment can be described thus: cells. The following applies: Homo sapiens, OVCA429, 48 h, read-out: 48 h IC50 CQ in adherent culture. From the text: (§1) FIG. 7 depicts bar graphs that illustrate the results of an OVCA429 soft agar assay. […] This confirms the effect in human high grade serous ovarian cancer cells. […] CDX2(−) at left. […] P<0.005.
Another experiment concerns OVCA429 GAL (CDX2(−)). Nature of the experiment: cells. The settings on record: Homo sapiens, OVCA429, 48 h, read-out: 48 h IC50 CQ in adherent culture.
Description: as §1

The subject of experiment [1] is CDX2(+) ovarian tumours in mice. Nature of the experiment: Survival of mice with ovarian tumours treated with chloroquine. The experiment is classed as in vivo, mouse. The settings on record: chloroquine 10 mg/kg 3 times a week, initiated 30 days after delivery of tumor cells. The source says: For all experiments aged females (9-10 month) were used, as these represent targeted patient population (e.g., peri-menopausal women). Mice were sacrificed when ascites formed.

Experiment [2] relates to CDX2(+) derived cell lines D4 and B2. Nature of the experiment: Long-term nutritional deprivation, cellular survival of cell colonies in vitro. The format is cell-based.
Description: FIG. 6A depicts bar graphs that illustrate the long-term effect of nutritional deprivation on cellular survival in CDX2(−) and CDX2(+) cell colonies in vitro and the effect of treatment with autophagy inhibitors. […] P<0.001.
The test system of experiment [3] is CDX2(+) ovarian cancer cells. Nature of the experiment: Hanging drop assay under starvation conditions. The experiment is classed as cell-based, mouse. From the text: FIG. 3A depicts a CDX2(−) parental control. FIGS. 3B and 3C depict CDX2(+) derived cell lines. The mouse ovarian cancer cell line MOSEC5 that is CDX2(−) was genetically modified to create CDX2(+) derived cell lines. Cells were placed in a “hanging drop” assay under starvation conditions.

In the next experiment the test system is Cdx2-expressing cells. Nature of the experiment: Expression of autophagy genes after chloroquine in Cdx2-expressing cells. The experiment is classed as cell-based.

Structures are written as SMILES.

`CCN(CC)CCCC(C)Nc1ccnc2cc(Cl)ccc12` (stereo not shown) [chloroquine]: the IC50 with OVCA429 CDX2 was 9.3 µM. Moreover, the IC50 with OVCA429 GAL (CDX2(−)) was 11.5 µM. In experiment [1], the survival of mice result is given as “prolongs survival of mice with ovarian tumours”. In addition, in experiment [1] (listed as Chloroquine), the survival of mice result was “improved survival in CDX2(+) mice”. For the same molecule, the “survival of CDX2(+) cells after long-term stress” value in experiment [2] is on record as “reverse this survival”. Moreover, in experiment [3], the cancer cell survival entry is recorded as “reduce cancer cell survival” and the inhibition of autophagy result is listed as “did inhibit autophagy”. Also, in the experiment with Cdx2-expressing cells, the “LAM P1 gene expression” value is recorded as “down-regulated”, the NPC gene expression entry is “significantly up-regulated”, the SQSTM1 gene expression result was “significantly up-regulated” and the ULK2 gene expression entry is “down-regulated”. Besides, the WIPI1 gene expression result with Cdx2-expressing cells is recorded as “significantly up-regulated”.

On to `Cn1cnc(N)c2ncnc1-2` [3-methyladenine], for which the “survival of CDX2(+) cells after long-term stress” value in experiment [2] is listed as “reverse this survival”.

Values taken from US20210215710A1, “METHODS FOR USE OF CDX2 AS A BIOMARKER TO GUIDE USE OF AUTOPHAGY INHIBITORS IN OVARIAN CANCER” (UNIVERSITY HEALTH NETWORK, priority 2019, published 2021).
